Series [1] is described as follows: Distribution coefficient, log D at pH 7.8. To be noted: octanol/water. The series is classed as physicochemical.
Series [2] deals with T1, Prostaglandin E2 receptor EP1 subtype (Homo sapiens, UniProt P34995).
T1 sequence (P34995 whole entry): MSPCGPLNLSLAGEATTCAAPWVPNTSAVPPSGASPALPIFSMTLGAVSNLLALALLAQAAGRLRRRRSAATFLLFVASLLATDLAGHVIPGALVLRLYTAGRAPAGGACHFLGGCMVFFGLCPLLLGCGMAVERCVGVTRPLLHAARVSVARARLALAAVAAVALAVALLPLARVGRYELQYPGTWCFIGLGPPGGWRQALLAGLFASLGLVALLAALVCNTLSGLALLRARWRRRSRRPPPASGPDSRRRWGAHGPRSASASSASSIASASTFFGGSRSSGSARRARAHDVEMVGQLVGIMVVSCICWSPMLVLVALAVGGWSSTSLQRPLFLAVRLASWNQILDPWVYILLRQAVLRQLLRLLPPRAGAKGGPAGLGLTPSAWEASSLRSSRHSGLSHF
Put plainly: Displacement of [3H]PGE2 from EP1 receptor. A general note: In a radioligand displacement assay an active substance lowers the binding of a labelled ligand.

The target of series [3] is T1, Prostaglandin E2 receptor EP1 subtype. Put plainly: Antagonist activity at EP1 receptor by FLIPR assay. The series is classed as functional.

Molecules are shown by their SMILES. Bounds are passed on as bounds.

As to `O=C(O)c1cccc(Cc2cc(Cl)ccc2OCc2ccccc2)c1`, the logD in series [1] worked out at 3. This compound had an IC50 in series [2] of 316 nM.
`Cc1cc(C(=O)O)nn1Cc1cc(Br)ccc1OCc1ccccc1` returned a logD in series [1] of 1.2. The compound also gave an IC50 in series [2] of 6.31 nM.
For `CC(C)COc1ccc(Cl)cc1Cc1nc(C(=O)O)cs1`, the IC50 in series [2] was 7.94 nM.
In the case of `O=C(O)c1cccc(Cc2cc(Cl)ccc2OCc2ccccc2)n1`, the logD in series [1] was 2.2. In addition, in series [2], the IC50 is 158 nM.
In turn, `O=C(O)c1cnc(Cc2cc(Cl)ccc2OCc2ccccc2)s1` came in with a logD in series [1] of 0.9. Also, the half-maximal inhibitory concentration (IC50) in series [2] was 631 nM.
Taken in the same sequence, the figures for `O=C(O)c1csc(Cc2cc(Cl)ccc2OCc2ccccc2)c1` were 2.8 and 39.8 nM.
For `Cc1ccc(-c2cc(Cl)ccc2OCc2ccccc2)n1-c1cccc(C(=O)O)c1`, in series [1], the logD is 2.5.
The compound `O=C(O)c1cncc(Cc2cc(Cl)ccc2OCc2ccccc2)c1` gave a logD in series [1] of 1.4. This compound gave an IC50 in series [2] of 631 nM.
Turning to `O=C(O)c1cccc(Nc2ccccc2OCc2ccccc2)n1`, the IC50 in series [2] was over 1000 nM.
As for `O=C(O)c1cccc(C2=C(c3cc(Cl)ccc3OCc3ccccc3)CCC2)c1`, the logD in series [1] was determined as 3.
`CC(C)COc1ccc(Cl)cc1Cc1ccc(C(=O)O)o1` gave a Ki in series [3] of 0.316 nM. In series [2], the IC50 was 3.16 nM.
As for `O=C(O)c1csc(Cc2cc(Cl)ccc2OCc2ccccc2)n1`, the logD in series [1] stood at 1.2. The same compound had an IC50 in series [2] of 6.31 nM.
In the case of `O=C(O)Cc1csc(Cc2cc(Cl)ccc2OCc2ccccc2)n1`, the IC50 in series [2] is over 1000 nM.
In turn, `O=C(O)c1ccn(Cc2cc(Cl)ccc2OCc2ccccc2)n1` came in with a logD in series [1] of 0.7. The IC50 in series [2] is 79.4 nM.
In series [1], `Cn1cc(C(=O)O)nc1Cc1cc(Cl)ccc1OCc1ccccc1` gave a logD of 0.7. Moreover, in series [2], the IC50 is 316 nM.
`O=C(O)c1ccnc(Cc2cc(Cl)ccc2OCc2ccccc2)c1` came in with a logD in series [1] of 1.1. In series [2], this compound showed an IC50 of over 1000 nM.
As to `O=C(O)c1coc(Cc2cc(Cl)ccc2OCc2ccccc2)n1`, the logD in series [1] is 0.5. Moreover, the affinity in series [3] corresponds to a Ki of 1.58 nM. Moreover, the IC50 in series [2] was 20 nM.
`O=C(O)Cc1csc(-c2cc(Cl)ccc2OCc2ccccc2)n1` gave an IC50 in series [2] of 50.1 nM.
As to `O=C(O)c1nc(Cc2cc(Cl)ccc2OCc2ccccc2)cs1`, in series [1], the logD amounted to 1.1. Besides, the IC50 in series [2] is 25.1 nM.
Turning to `Cn1c(C(=O)O)cnc1Cc1cc(Cl)ccc1OCc1ccccc1`, the logD in series [1] came to 0.7. This compound had an IC50 in series [2] of over 1000 nM.
In the case of `O=C(O)c1ccc(Cc2cc(Cl)ccc2OCc2ccccc2)o1`, the logD in series [1] worked out at 1.5. Moreover, the Ki in series [3] is 2 nM. In series [2], this compound had an IC50 of 6.31 nM.
Consider `CC(C)COc1ccc(Cl)cc1Cc1cccc(C(=O)O)n1`, for which the affinity in series [3] corresponds to a Ki of 158 nM. Also, the IC50 in series [2] is 39.8 nM.
In the case of `Cc1cc(C(=O)O)cn1Cc1cc(Cl)ccc1OCc1ccccc1`, the logD in series [1] came out at 3. In series [2], this compound gave an IC50 of 158 nM.
In turn, `Cc1cc(C(=O)O)nn1Cc1cc(Cl)ccc1OCC(C)C` gave a Ki in series [3] of 0.794 nM. The compound further gave an IC50 in series [2] of 10 nM.
For the compound `Cc1cc(C(=O)O)oc1Cc1cc(Cl)ccc1OCc1ccccc1`, the logD in series [1] was 1.8. Moreover, in series [3], the Ki was 2 nM. In series [2], this compound had an IC50 of 10 nM.
In series [1], `Cc1cc(C(=O)O)nn1Cc1cc(Cl)ccc1OCc1ccccc1` had a logD of 1. This compound had an IC50 in series [2] of 10 nM.
Take `O=C(O)c1csc(-c2cc(Cl)ccc2OCc2ccccc2)n1`: the IC50 in series [2] was 631 nM.
`Cc1ccc(-c2cc(Cl)ccc2OCC(C)C)n1-c1cccc(C(=O)O)c1` gave a logD in series [1] of 3.1.
As for `O=C(O)c1c[nH]c(Cc2cc(Cl)ccc2OCc2ccccc2)n1`, the logD in series [1] turned out to be 0.6. The compound further had an IC50 in series [2] of over 1000 nM.
For `Cc1cc(CC(=O)O)nn1-c1cc(Cl)ccc1OCc1ccccc1`, the IC50 in series [2] is over 1000 nM.
In series [2], `O=C(O)c1csc(Nc2cc(Cl)ccc2OCc2ccccc2)n1` showed an IC50 of 25.1 nM.
As to `O=C(O)c1cccc(Oc2cc(Cl)ccc2OCc2ccccc2)n1`, the IC50 in series [2] was 794 nM.
On to `O=C(O)c1ccc(Cc2cc(Cl)ccc2OCc2ccccc2)s1`, for which the logD in series [1] was 2.3. In series [3], this compound gave a Ki of 15.8 nM. In series [2], this compound gave an IC50 of 50.1 nM.

Usually logD stands for the decadic logarithm of the distribution of all forms, ionised or not, between an organic phase and buffer at a given pH. A high value points to higher lipophilicity. In general, IC50 refers to the midpoint of a concentration-inhibition curve. Higher therefore signals lower potency. A word on the Ki: it is a measure of affinity in units of concentration, obtained from inhibition or displacement.

(Values after ChEMBL document CHEMBL1143119, “Novel methylene-linked heterocyclic EP1 receptor antagonists” (Bioorg Med Chem Lett, 2008).)
